Data set [1] has as its target T1, ACE (Homo sapiens, UniProt P12821). The data set is described as follows: ACE-inhibitory activity assay of synthetic peptides (HHL substrate, hippuric acid by RP-HPLC). It counts as biochemical. The note with it: for inhibition at 1000 µg/mL: 0.75 h, peptide 1 mg/mL; for IC50: Table 2, top 8 peptides. As to the method: The peptides were prepared by the fmoc solid-phase method (purity ≥ 98% by HPLC) at Genscript Biotech Corporation (Nanjing, China). ACE-inhibitory activity of the synthesized peptides was evaluated according to the method of Ma. et al., with some modifications. In brief, 50 µL of sample was added into 150 µL of 5 mmol·L^−1 hippuryl-l-histidyl-l-leucine (HHL) and incubated for 10 min at 37 °C. Then, the enzymatic reaction was initiated by addition of 50 µL of 50 mU/mL ACE solution and kept at a constant temperature of 37 °C for 45 min. The reaction was then terminated by adding 250 µL of 1 mol·L^−1 HCl. RP-HPLC (Waters, Milford, MA, USA) was used to measure hippuric acid (HA) formation at 220 nm. […] The IC50 value represents the concentration of the peptide that inhibits 50% of ACE activity under the assay conditions.

The target of data set [2] is T1, ACE. The note with it: read-out: IC50, ACE inhibition, cited from earlier work.
For data set [3] the following is noted: attributed to multiple hydrophobic amino acids.
In data set [4] the target is T1, ACE. Briefly: Surface plasmon resonance (SPR) assay. The data set is classed as binding. Here is the method: The affinity interaction between TLRFALHGME and ACE was verified by SPR experiments. In brief, 5 ug ACE was fixed on a COOH sensor chip by capture-coupling. Afterwards, 50–800 μmol·L^−1 of TLRFALHGME were injected sequentially into the chamber in PBS running buffer. The SPR assay was performed at 25 °C on an OpenSPRTM (Nicoya Lifesciences, Waterloo, QC, Canada). The conditions for the analysis were set at a flow rate of 20 μL·min^−1, the binding time was 240 s, and the disassociation time was 480 s. Chips were regenerated using a regeneration buffer (0.25% SDS). A one-to-one diffusion-corrected model was fitted to the wavelength shifts corresponding to the series of TLRFALHGME concentrations. The kinetic constant analysis was performed using TraceDrawer 1.9.1 software (Ridgeview Instruments AB, Uppsala, Sweden) to determine the association constant (Ka) and dissociation constant (Kd). The affinity constant (KD) was calculated as the ratio kd/ka.
(In general: SPR reads the build-up and loss of mass on a sensor chip optically.)

A further data set has as its system hypertensive rats. More on the design: method as in PMID 34783331. The note with it: cited from earlier work.
Data set [5] addresses T2, angiotensin-I-converting enzyme (UniProt P12822 34-1260).
T2 sequence (looked up): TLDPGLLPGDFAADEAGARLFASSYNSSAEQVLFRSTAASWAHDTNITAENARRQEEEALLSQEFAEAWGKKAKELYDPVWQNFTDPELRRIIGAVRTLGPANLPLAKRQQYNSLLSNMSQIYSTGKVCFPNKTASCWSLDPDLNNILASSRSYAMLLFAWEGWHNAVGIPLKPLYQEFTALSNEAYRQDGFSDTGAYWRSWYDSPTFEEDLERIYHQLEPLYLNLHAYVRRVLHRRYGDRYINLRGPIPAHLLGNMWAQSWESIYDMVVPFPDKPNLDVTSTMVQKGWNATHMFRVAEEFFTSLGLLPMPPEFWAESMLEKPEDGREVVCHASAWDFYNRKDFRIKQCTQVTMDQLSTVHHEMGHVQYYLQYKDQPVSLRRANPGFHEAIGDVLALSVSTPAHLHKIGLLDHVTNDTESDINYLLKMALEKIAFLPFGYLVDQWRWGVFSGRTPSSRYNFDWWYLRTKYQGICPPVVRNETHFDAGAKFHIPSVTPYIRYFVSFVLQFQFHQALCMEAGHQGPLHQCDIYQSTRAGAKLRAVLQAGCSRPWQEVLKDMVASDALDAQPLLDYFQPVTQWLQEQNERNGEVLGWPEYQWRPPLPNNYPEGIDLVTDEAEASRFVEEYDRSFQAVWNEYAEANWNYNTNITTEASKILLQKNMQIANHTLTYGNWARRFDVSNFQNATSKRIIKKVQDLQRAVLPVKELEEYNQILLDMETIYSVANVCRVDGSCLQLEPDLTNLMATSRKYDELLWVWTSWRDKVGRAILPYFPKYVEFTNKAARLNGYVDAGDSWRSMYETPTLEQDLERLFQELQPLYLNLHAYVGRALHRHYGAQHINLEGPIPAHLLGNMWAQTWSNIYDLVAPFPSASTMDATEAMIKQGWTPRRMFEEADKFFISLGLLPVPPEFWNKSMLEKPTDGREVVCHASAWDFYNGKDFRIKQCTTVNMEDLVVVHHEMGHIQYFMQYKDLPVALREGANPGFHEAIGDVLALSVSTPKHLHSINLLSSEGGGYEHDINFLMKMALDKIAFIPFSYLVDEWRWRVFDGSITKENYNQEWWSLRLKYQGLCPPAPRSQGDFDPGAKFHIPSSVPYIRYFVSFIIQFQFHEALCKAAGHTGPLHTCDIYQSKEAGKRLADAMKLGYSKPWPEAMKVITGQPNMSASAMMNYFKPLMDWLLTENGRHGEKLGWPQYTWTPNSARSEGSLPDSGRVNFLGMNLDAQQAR
The data set is described as follows: cell-based or functional assay.

For data set [6], the target named is T2, angiotensin-I-converting enzyme.
[7] abbreviates: from Volutharpa ampullacea perryi hydrolysate, Zn-SBA-15-immobilized ACE and HPLC.

Like-named read-outs stand apart in the source and are kept apart here. Where a SMILES comes first, the peptide text is derived from it. Where no end group is shown, it is not given here.

T1 sequence (P12821 30-1306, species assumed): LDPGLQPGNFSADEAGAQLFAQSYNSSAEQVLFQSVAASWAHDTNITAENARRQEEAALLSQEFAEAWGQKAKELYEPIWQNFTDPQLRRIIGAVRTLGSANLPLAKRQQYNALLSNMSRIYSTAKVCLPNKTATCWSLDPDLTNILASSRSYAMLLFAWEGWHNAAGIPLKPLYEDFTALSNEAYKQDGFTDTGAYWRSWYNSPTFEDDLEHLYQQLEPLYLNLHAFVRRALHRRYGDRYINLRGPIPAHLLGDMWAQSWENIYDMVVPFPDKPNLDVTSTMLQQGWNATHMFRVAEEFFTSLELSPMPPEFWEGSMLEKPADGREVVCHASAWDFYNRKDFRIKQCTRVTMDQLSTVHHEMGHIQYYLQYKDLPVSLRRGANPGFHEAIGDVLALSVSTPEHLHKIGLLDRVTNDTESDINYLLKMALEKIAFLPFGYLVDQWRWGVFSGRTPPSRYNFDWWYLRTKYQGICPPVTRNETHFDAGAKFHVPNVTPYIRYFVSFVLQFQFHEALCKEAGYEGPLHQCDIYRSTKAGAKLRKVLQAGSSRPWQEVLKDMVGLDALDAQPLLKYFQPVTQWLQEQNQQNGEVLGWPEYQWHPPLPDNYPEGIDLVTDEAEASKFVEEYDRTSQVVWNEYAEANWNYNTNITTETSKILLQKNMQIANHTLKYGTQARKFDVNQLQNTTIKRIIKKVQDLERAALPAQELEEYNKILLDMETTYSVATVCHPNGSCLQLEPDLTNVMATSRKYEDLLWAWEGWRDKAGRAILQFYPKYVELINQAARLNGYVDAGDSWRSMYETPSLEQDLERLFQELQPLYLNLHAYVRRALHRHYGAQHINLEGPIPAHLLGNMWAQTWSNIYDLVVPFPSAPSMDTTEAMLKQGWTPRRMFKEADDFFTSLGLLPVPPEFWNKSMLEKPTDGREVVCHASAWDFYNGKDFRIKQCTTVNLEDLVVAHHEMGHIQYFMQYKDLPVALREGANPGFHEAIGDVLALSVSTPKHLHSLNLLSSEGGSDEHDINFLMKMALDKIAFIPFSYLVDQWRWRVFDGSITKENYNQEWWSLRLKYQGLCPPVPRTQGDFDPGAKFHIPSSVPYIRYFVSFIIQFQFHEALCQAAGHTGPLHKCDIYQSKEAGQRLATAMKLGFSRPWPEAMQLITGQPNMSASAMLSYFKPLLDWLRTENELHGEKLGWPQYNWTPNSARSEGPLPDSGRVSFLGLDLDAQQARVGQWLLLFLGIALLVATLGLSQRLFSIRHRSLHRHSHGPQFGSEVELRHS

The inhibition is the percentage by which the read-out fell short of the control. The low end stands for a response near the control, the high end for a response far below the control. The term IC50 denotes the concentration at which inhibition is half-maximal. With `CC(C)C[C@H](NC(=O)[C@H](CC(C)C)NC(=O)[C@@H](NC(=O)[C@@H](N)Cc1ccc(O)cc1)C(C)C)C(=O)O` [YVLL] (H-YVLL-OH; N-terminus and C-terminus assumed), at ACE [1], the inhibition at 1000 µg/mL was more than 50% and the IC50 is 154 µM.

On ACE [1], TFTGA [TFTGA] had an inhibition at 1000 µg/mL of more than 50% and an IC50 of 694 µM.

For the molecule VGPAGRPG, the IC50 with ACE [2] (setting [7]) was 4660 µM.

At ACE [1], `CC(C)C[C@H](NC(=O)[C@H](CC(C)C)NC(=O)[C@@H](NC(=O)[C@@H](N)[C@@H](C)O)C(C)C)C(=O)O` [TVLL] (H-TVLL-OH; N-terminus and C-terminus assumed) displayed an inhibition at 1000 µg/mL of more than 50% and a half-inhibitory concentration (IC50) of 582 µM.

For the molecule RSTGALAL [RSTGALAL], at ACE [1], the inhibition at 1000 µg/mL was more than 50% and the midpoint of inhibition, the IC50, lay at 5840 µM.

On to TLFGL [TLFGL], for which, at ACE [1], the inhibition at 1000 µg/mL was more than 50% and the IC50 came to 57.5 µM. In data set [3], the Solubility entry is “low solubility”.

At ACE [1], `CC(C)C[C@H](NC(=O)[C@H](C)NC(=O)[C@H](C)NC(=O)[C@@H](N)CO)C(=O)O` [SAAL] (H-SAAL-OH; N-terminus and C-terminus assumed) returned an inhibition at 1000 µg/mL of more than 50% and an IC50 of 883 µM.

The Kd is the constant that tells how readily two partners part at equilibrium. At ACE [1], TLRFALHGME [TLRFALHGME] had an inhibition at 1000 µg/mL of more than 50% and an IC50 of 93.5 µM. Further, the koff at ACE [4] (25 °C, 50–800 µmol·L^−1 peptide, read-out: Kd (dissociation rate constant)) worked out at 0.002 s⁻¹. The same molecule showed a Kd at ACE [4] (KD, printed in Figure 7) of 80.8 µM. For the same molecule, the Kd at ACE [4] (abstract, read-out: Kd (binding affinity to ACE)) was found to be 80.9 µM.

As for WGAP, in the data set with hypertensive rats, the “Reduction of diastolic blood pressure” value is not above 28.56 ± 2.71 mmHg and the “Reduction of systolic blood pressure” value is “up to 42.66 ± 2.87 mmHg”.

VYP: the IC50 at ACE [2] (from lizard fish protein hydrolysates, MA-IML) was 108 µM.

As for `CC(C)C[C@H](NC(=O)[C@@H](N)C(C)C)C(=O)NCC(=O)N[C@@H](C)C(=O)O` [VLGA] (H-VLGA-OH; N-terminus and C-terminus assumed), at ACE [1], the inhibition at 1000 µg/mL was more than 50% and 1370 µM corresponded to half-maximal inhibition (IC50).

As to IVTNWDDMEL, the IC50 with ACE [2] (setting [7]) was 2080 µM.

B1: TLRFALHGME (peptide)
peptide: TLRFALHGME
notes: source: Takifugu flavidus skin hydrolysate (alcalase, <1 kDa fraction); also synthetic peptide (Fmoc solid phase, Genscript)
Regarding B1, the “ACE-inhibitory activity (hippuric acid formed from HHL, RP-HPLC), IC50” value (“ACE-inhibitory activity” below) in data set [5] is 93.5 µM.

B2: TFTGA (peptide)
peptide: TFTGA
On to B2, for which the “ACE-inhibitory activity” value in data set [5] was 694 µM.

B3: YVLL (peptide)
peptide: YVLL
In turn, B3 had an ACE-inhibitory activity (hippuric acid formed from HHL, RP-HPLC), IC50 in data set [6] of 154 µM.

B4: SAAL (peptide)
peptide: SAAL
As for B4, in data set [6], the ACE-inhibitory activity (hippuric acid formed from HHL, RP-HPLC), IC50 was found to be 883 µM.

B5: RSTGALAL (peptide)
peptide: RSTGALAL
B5: the “ACE-inhibitory activity” value in data set [5] came to 5840 µM.

B6: TVLL (peptide)
peptide: TVLL
On to B6, for which the ACE-inhibitory activity (hippuric acid formed from HHL, RP-HPLC), IC50 in data set [6] is 582 µM.

B7: VLGA (peptide)
peptide: VLGA
The molecule B7 returned an ACE-inhibitory activity (hippuric acid formed from HHL, RP-HPLC), IC50 in data set [6] of 1370 µM.

B8: TLFGL (peptide)
peptide: TLFGL
Regarding B8, in data set [5], the “ACE-inhibitory activity” value is 57.5 µM.

The record behind these values is PMC10608451, “Affinity Purification and Molecular Characterization of Angiotensin-Converting Enzyme (ACE)-Inhibitory Peptides from Takifugu flavidus” (Marine Drugs, 2023).
